By MIC is commonly meant the lowest concentration found to suppress growth.

This is an account of results in DBAASP.

Test systems include Aureobasidium pullulans; Escherichia coli K88; Escherichia coli UB1005; Escherichia coli K99; Acinetobacter baumannii; Escherichia coli 078.
Common to all, as to assay: ≥ marks a high value that may be exact or a test limit, other limits are often not marked, values filed in µg/mL are converted to µM
Assay [1] relates to Pseudomonas aeruginosa ATCC 27853.
The test system of assay [2] is Candida albicans ATCC 10231.
Assay [3] deals with Staphylococcus aureus ATCC 9144.
In assay [4] the test system is Escherichia coli ATCC 25922.
The test system of assay [5] is Corynebacterium glutamicum ATCC 13032.
The test system of assay [6] is Pseudomonas aeruginosa KCTC 1637.
Assay [7] relates to Pseudomonas aeruginosa CCARM 2109.
In assay [8] the test system is Staphylococcus aureus CCARM 3090.
Assay [9] has as its system Staphylococcus aureus CCARM 3095.
The test system of assay [10] is Staphylococcus aureus KCTC 1621.
Assay [11] has as its system Enterococcus faecium ATCC 51559.
The test system of assay [12] is Salmonella typhimurium KCTC 1926.
The subject of assay [13] is Bacillus subtilis KCTC 3068.
The subject of assay [14] is Staphylococcus aureus CCARM 3089.
Assay [15] has as its system Staphylococcus epidermidis KCTC 1917.
For assay [16], the system named is Escherichia coli KCTC 1682.
Assay [17] deals with Pseudomonas aeruginosa CCARM 2095.
In assay [18] the test system is Staphylococcus aureus ATCC 29213.
Assay [19] deals with Salmonella enterica subsp. enterica serovar Typhimurium ATCC 14028.
For assay [20], the system named is Staphylococcus epidermidis ATCC 12228.
Assay [21] has as its system Escherichia coli CVCC 1515.
For assay [22], the system named is Salmonella enterica subsp. enterica serovar Pullorum ATCC 7913.
Assay [23] concerns Staphylococcus aureus ATCC 43300.
In assay [24] the test system is Salmonella typhimurium ATCC 7731.
Assay [25] has as its system Pseudomonas aeruginosa PAO1.
Assay [26] concerns Enterococcus faecalis ATCC 29212.
For assay [27], the system named is Bacillus subtilis CMCC 63501.
The test system of assay [28] is Bacillus cereus CGMCC 1.932.
In assay [29] the test system is Listeria monocytogenes CGMCC 1.1075.
Assay [30] has as its system Staphylococcus aureus ATCC 25923.

Values after ≈ are worked out from the molar mass of the structure shown. Values joined by “and” are separate entries in the source; they are usually repeats but may differ in a detail not shown here. Identical values can stand only once.

With `CC(C)[C@H](NC(=O)[C@H](CCCCN)NC(=O)[C@H](C)NC(=O)[C@@H](NC(=O)[C@@H](NC(=O)[C@H](CCCN=C(N)N)NC(=O)[C@H](CCCN=C(N)N)NC(=O)[C@H](Cc1c[nH]c2ccccc12)NC(=O)[C@H](C)NC(=O)CN)[C@@H](C)O)C(C)C)C(=O)N[C@@H](CCCN=C(N)N)C(=O)N[C@@H](CCCCN)C(N)=O` [GAWRRTVAKVRK], the MIC in [1] is 200 µM (≈ 285 µg/mL); in assay [2] it was 50 µM (≈ 71.3 µg/mL); in assay [3], no less than 100 µM; in [4], 50 µM (≈ 71.3 µg/mL); in assay [5], 3.1 µM (≈ 4.42 µg/mL); in the assay with Aureobasidium pullulans, no less than 50 µM.

Turning to `CC(C)[C@H](NC(=O)[C@@H](NC(=O)[C@H](CCCN=C(N)N)NC(=O)[C@H](CCCN=C(N)N)NC(=O)[C@H](Cc1c[nH]c2ccccc12)NC(=O)[C@H](Cc1c[nH]c2ccccc12)NC(=O)CN)[C@@H](C)O)C(=O)N[C@@H](C)C(=O)N[C@@H](CCCCN)C(=O)N[C@@H](C)C(=O)N[C@@H](CCCN=C(N)N)C(=O)N[C@@H](CCCCN)C(N)=O` [GWWRRTVAKARK], the MIC was 6.3 µM (≈ 9.54 µg/mL) in assay [1]; 25 µM (≈ 37.8 µg/mL) in [2]; no less than 100 µM in [3]; 12.5 µM (≈ 18.9 µg/mL) in [4]; 1.6 µM (≈ 2.42 µg/mL) in assay [5]; no less than 50 µM in the assay with Aureobasidium pullulans.

Regarding `CC[C@H](C)[C@H](NC(=O)[C@H](C)NC(=O)[C@H](CCCN=C(N)N)NC(=O)[C@H](Cc1ccc(O)cc1)NC(=O)[C@H](CC(C)C)NC(=O)[C@H](CCCCN)NC(=O)[C@H](Cc1ccc(O)cc1)NC(=O)CNC(=O)[C@H](C)NC(=O)[C@H](CCCN=C(N)N)NC(=O)[C@@H](NC(=O)[C@H](Cc1c[nH]c2ccccc12)NC(=O)[C@H](CCCN=C(N)N)NC(=O)[C@@H](NC(=O)[C@@H](NC(=O)[C@@H](N)CC(C)C)C(C)C)[C@@H](C)CC)C(C)C)C(=O)N[C@@H](CCCCN)C(=O)N[C@@H](CCCCN)C(=O)N[C@@H](CCCCN)C(N)=O` [LVIRWVRAGYKLYRAIKKK], the MIC in assay [6] was 8 µM (≈ 18.9 µg/mL); in assay [7] it was 4 µM (≈ 9.44 µg/mL); in assay [8] it was 2 µM (≈ 4.72 µg/mL); in [9], 2 µM (≈ 4.72 µg/mL); in assay [10], 2 µM and 4 µM; in assay [11] it was 4 µM (≈ 9.44 µg/mL). The MIC in assay [12] is 2 µM (≈ 4.72 µg/mL); in assay [13] it was 2 µM (≈ 4.72 µg/mL); in assay [14], 4 µM (≈ 9.44 µg/mL); in [15], 4 µM (≈ 9.44 µg/mL); in assay [16] it was 4 µM and 8 µM; in [17], 2 µM (≈ 4.72 µg/mL).

Consider `CC(C)C[C@H](NC(=O)[C@H](CCCCN)NC(=O)[C@H](C)NC(=O)[C@H](C)NC(=O)[C@H](C)NC(=O)[C@H](CCCCN)NC(=O)[C@H](C)NC(=O)[C@H](C)NC(=O)[C@H](C)NC(=O)[C@H](CCCCN)NC(=O)[C@H](Cc1c[nH]c2ccccc12)NC(=O)[C@@H](N)CC(C)C)C(=O)N[C@@H](Cc1c[nH]c2ccccc12)C(N)=O` [LWKAAAKAAAKLW], for which the MIC is 4 µM (≈ 5.71 µg/mL) in the assay with Escherichia coli K88; 8 µM (≈ 11.4 µg/mL) in assay [1]; 8 µM (≈ 11.4 µg/mL) in assay [18]; 4 µM (≈ 5.71 µg/mL) in assay [4]; 8 µM (≈ 11.4 µg/mL) in the assay on Escherichia coli UB1005; 32 µM (≈ 45.7 µg/mL) in [19]. Besides, the MIC in [20] and in [21] was 8 µM (≈ 11.4 µg/mL) each time.

Regarding `C[C@H](NC(=O)[C@H](CCCN=C(N)N)NC(=O)[C@H](Cc1c[nH]c2ccccc12)NC(=O)[C@H](CCCN=C(N)N)NC(=O)[C@H](Cc1c[nH]c2ccccc12)NC(=O)[C@H](Cc1c[nH]c2ccccc12)NC(=O)[C@H](Cc1c[nH]c2ccccc12)NC(=O)[C@H](CCCN=C(N)N)NC(=O)[C@H](Cc1c[nH]c2ccccc12)NC(=O)[C@H](CCCN=C(N)N)NC(=O)[C@@H](N)CO)C(N)=O` [SRWRWWWRWRA], the MIC is 1 µM (≈ 1.73 µg/mL) with Escherichia coli K99; 4 µM (≈ 6.92 µg/mL) with Escherichia coli K88; 2 µM (≈ 3.46 µg/mL) in assay [1]; 0.5 µM (≈ 0.866 µg/mL) in assay [22]; 2 µM (≈ 3.46 µg/mL) in assay [23]; 4 µM (≈ 6.92 µg/mL) in assay [24]. The MIC against Acinetobacter baumannii was found to be 2 µM (≈ 3.46 µg/mL); in the assay on Escherichia coli 078 it was 2 µM (≈ 3.46 µg/mL); in assay [25], 4 µM (≈ 6.92 µg/mL); in assay [26], 4 µM (≈ 6.92 µg/mL); in assay [27], 8 µM (≈ 13.8 µg/mL); in assay [28], 4 µM (≈ 6.92 µg/mL). In addition, the MIC in the assay with Escherichia coli UB1005 was 1 µM (≈ 1.73 µg/mL); in [19], 2 µM (≈ 3.46 µg/mL); in assay [29], 2 µM (≈ 3.46 µg/mL); in assay [30], 1 µM (≈ 1.73 µg/mL); in assay [20], 0.5 µM (≈ 0.866 µg/mL).

On to `C[C@H](NC(=O)[C@H](CCCN=C(N)N)NC(=O)[C@H](Cc1c[nH]c2ccccc12)NC(=O)[C@H](CCCN=C(N)N)NC(=O)[C@H](Cc1c[nH]c2ccccc12)NC(=O)[C@H](Cc1c[nH]c2ccccc12)NC(=O)[C@H](Cc1c[nH]c2ccccc12)NC(=O)[C@H](CCCN=C(N)N)NC(=O)[C@H](Cc1c[nH]c2ccccc12)NC(=O)[C@H](CCCN=C(N)N)NC(=O)[C@@H](N)[C@@H](C)O)C(N)=O` [TRWRWWWRWRA], for which the MIC in the assay with Escherichia coli K99 is 2 µM (≈ 3.49 µg/mL); in the assay with Escherichia coli K88 it was 2 µM (≈ 3.49 µg/mL); in assay [1], 2 µM (≈ 3.49 µg/mL); in [22], 1 µM (≈ 1.75 µg/mL); in [23], 2 µM (≈ 3.49 µg/mL); in [24], 2 µM (≈ 3.49 µg/mL). Besides, the MIC against Acinetobacter baumannii came to 2 µM (≈ 3.49 µg/mL); with Escherichia coli 078, 2 µM (≈ 3.49 µg/mL); in assay [25], 16 µM (≈ 27.9 µg/mL); in [26], 4 µM (≈ 6.98 µg/mL); in assay [27], 16 µM (≈ 27.9 µg/mL); in [28] it was 8 µM (≈ 14 µg/mL). Moreover, the MIC (with Escherichia coli UB1005; in assay [19]; in [29]; in assay [30]; in assay [20]) was 1 µM (≈ 1.75 µg/mL) each time.
